One data set has as its system TEAD-YAP/TAZ interaction. Kind of data set: CTGF ELISA assay. The class given is cell-based, human. The conditions noted are these: CTGF in culture supernatant of NCI-H2052 cells, 24 hours with compound. In outline:
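NCI-H2052 cells treated 24 h at 37 °C with compound (10000–0.61 nM, 0.5% DMSO); secreted CTGF in supernatant measured by sandwich ELISA (OD 450 nm) against a standard curve. EC50 fitted from CTGF concentration-response curves.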
Background: An ELISA detects its analyte on a solid surface through an enzyme-linked reagent.

A further data set relates to NCI-H226 cells. Kind of data set: BRDU assay (cell proliferation). The conditions noted are these: Homo sapiens, proliferation inhibition, 1% FBS medium. The class given is cell-based. On the procedure:
PerkinElmer's DELFIA® Cell proliferation kit (PerkinElmer, Cat: AD0200) was used to detect the inhibition on the proliferation of NCI-H226 cells (ATCC, CRL-5826). • a) Seeded 1500/well for NCI-H226 cell into a 96-well plate. • b) After 24 hours, compound was added to wells with 1% FBS medium conditions. The final testing concentrations of test compounds were […]. • c) NCI-H226 cells were incubated for 72 hours in incubator. • d) Diluted BrdU Labeling Reagent 100-fold with medium and added […] per well. The NCI-H226 cells were incubated 24 h in 5% CO2 at 37° C. incubator. • e) Detect cell proliferation according BrdU kit, and the luminescence signal value of each well on the multifunctional microplate reader was readed.
Data analysis: • Use GraphPad Prism 6 software to calculate IC50 and plot effect-dose curve of compounds.
Y=Bottom+(Top−Bottom)/(1+10^((LogIC50−X)×HillSlope)). • Y was the inhibition %, • X was the log concentration of compounds.
Inhibition %=(signalHC−signalcomp)/(signalHC−signalLC); • HC (high control) was DMSO group, • LC (low control) was 10 uM staurosporine group, • Comp was administration group.
IC50 data obtained for the Example compounds are provided in Table 7, and the inhibition curve in NCI-H226 cell line are as shown in FIG. 1-7, wherein X axis is compound concentration (nm), Y axis is the inhibition %.

The subject of data set [1] is NCI-H226 human lung squamous cell carcinoma xenograft. Kind of data set: In vivo efficacy, subcutaneous NCI-H226 xenograft model. Also noted: species or system BALB/c nude mice. As to conditions: QD, oral, tumor volume at day 28. Here is the method: In vivo pharmacodynamic and efficacy studies of compound 5, compound 6, and compound 124 in the subcutaneous NCI-H226 human lung squamous cell carcinoma xenograft model on BALB/c nude mice.
(§1) Each mouse (D000521 BALB/c-Nu, GemPharmatech Co., Ltd.) was inoculated subcutaneously at the right flank with NCI-H226 tumor cells (ATCC, CRL-5826) (1×107) in 0.2 mL of PBS with Matrigel (Corning, 356234) (1:1) for tumor development. Treatments were started when the average tumor size reached approximately 100-150 mm3. The test article was administered to the mice orally once a day from the day of grouping, total 28 days (QD×28 Days). Body weight change of animals was monitored regularly as an indicator of drug safety. Tumor volumes were measured twice weekly in two dimensions using a caliper, and the volume was expressed in mm3 using the formula “V=(LλW^2)/2”, where V is the tumor volume, L is the tumor length (the longest tumor dimension) and W is the tumor width (the longest tumor dimension perpendicular to L). Therapeutic efficacy was evaluated by tumor growth inhibition TGI (%)·TGI (%)=[1−(Ti−T0)/(Vi−V0)]×100; Ti is the average tumor volume of a treatment group on a given day, TO is the average tumor volume of the treatment group on day 0, Vi is the average tumor volume of the vehicle control group on the same day with Ti, and V0 is the average tumor volume of the vehicle group on day 0.

Data set [2] in a line: Body weight change in NCI-H226 xenograft model. In kind it is in vivo, BALB/c nude mice. The conditions noted are these: daily oral dosing, 28 days, mice bearing NCI-H226 tumor. Here is the method:
as §1

Data set [3] is described as follows: Pharmacokinetics in plasma following PO cassette dosing in mice. In kind it is in vivo. As to conditions: mouse, Balb/C female mice, 5 mg/kg; for AUC: blood collection 30 min, 2 h, 4 h. Here is the method:
Adult Balb/C female mice (6-7 weeks, Vitalriver) were received to cassette dosing of the test compounds with 10-20% DMSO, 10% Solutol (Kolliphor HS 15, Beijing Fengli Jingqiu Pharmaceutical Co., Ltd.) and 80-70% H2O as excipients. The mice (n=3) were giving oral administration (intragastric administration) at a dose of 5 mg/kg. Time of blood collection: 30 min, 2 h, 4 h. About 0.1 mL of whole blood was collected from retro-orbital venous plexus, and placed into tubes that contained EDTA as an anticoagulant. The samples were centrifuged at 4° C. and 4000 rpm for 10 min. The plasma was transferred into centrifuge tubes, and stored at −20° C. before being analyzed. Concentrations of test compounds in the plasma samples were analyzed with liquid chromatography-tandem mass spectrometry (LC-MS/MS). Plasma concentration-time data of individual animals was analyzed using Microsoft Excel 2010. Non-compartmental model was introduced in concentration analysis. The pharmacokinetic parameters of the test compounds were calculated using WinNonlin (version 4.1; Pharsight) software.

Usually EC50 stands for the concentration giving half of the maximal effect. For orientation: IC50 means the midpoint of a concentration-inhibition curve. The low end stands for higher potency, the high end for lower potency. `C=CC(=O)N1CCC(n2nc(-c3ccc(C(F)(F)F)cc3)c3ccccc32)C1` (stereo not drawn) [Compound 3, 1-(3-(3-(4-(trifluoromethyl)phenyl)-1H-indazol-1-yl)pyrrolidin-1-yl)prop-2-en-1-one]: the EC50 in the data set on TEAD-YAP/TAZ interaction was determined as 30.4 nM. Also, half-maximal inhibition in the data set with NCI-H226 cells (IC50) required 19.5 nM.

For the compound `C=C(F)C(=O)N1CC(n2nc(-c3ccc(C(F)(F)F)cc3)c3cccnc32)C1` [Compound 5, 2-fluoro-1-(3-(3-(4-(trifluoromethyl)phenyl)-1H-pyrazolo[3,4-b]pyridin-1-yl)azetidin-1-yl)prop-2-en-1-one], the “TGI (%)” value in data set [1] (0.5 mg/kg) is recorded as 40.3%; in data set [1] (2 mg/kg), 76.9%; in data set [1] (10 mg/kg) it was 101.3%; in data set [1] (50 mg/kg), 105.9%. Moreover, in data set [2], the body weight loss entry is “no significant body weight loss”. Also, the EC50 in the data set on TEAD-YAP/TAZ interaction is 3 nM. In the data set with NCI-H226 cells, this compound came in with an IC50 of 5.33 nM.

`C=C(F)C(=O)N1CC(n2nc(-c3ccc(C(F)(F)F)cc3)c3ncccc32)C1` [Compound 6, 2-fluoro-1-(3-(3-(4-(trifluoromethyl)phenyl)-1H-pyrazolo[4,3-b]pyridin-1-yl)azetidin-1-yl)prop-2-en-1-one]: the “TGI (%)” value in data set [1] (2 mg/kg) is 77.1%; in data set [1] (10 mg/kg), 88.6%. For the same compound, the body weight loss entry in data set [2] is listed as “no significant body weight loss”. Besides, the EC50 in the data set on TEAD-YAP/TAZ interaction was determined as 2 nM. Further, the IC50 in the data set on NCI-H226 cells was found to be 140 nM.

For the compound `C=CC(=O)N1CC(n2nc(-c3ccc(C(F)(F)F)cc3)c3cccnc32)C1` [Compound 30, 1-(3-(3-(4-(trifluoromethyl)phen-yl)-1H-pyrazolo[3,4-b]pyridin-1-yl)azetidin-1-yl)prop-2-en-1-one], the EC50 in the data set on TEAD-YAP/TAZ interaction came out at 12 nM. In the data set on NCI-H226 cells, this compound showed an IC50 of 55.7 nM.

The Cmax is the peak of the concentration-time curve. Usually AUC stands for concentration integrated over time. A lower AUC goes with less exposure. In data set [3], `C=C(C)C(=O)N1CC(n2nc(-c3ccc(C(F)(F)F)cc3)c3cccnc32)C1` [Compound 73, 2-methyl-1-(3-(3-(4-(trifluoro-methyl)phenyl)-1H-pyrazolo[3,4-b]pyridin-1-yl)azetidin-1-yl)prop-2-en-1-one] registered a Cmax of 1190 ng/mL and an AUC of 4070 ng·h/mL. Moreover, the EC50 in the data set on TEAD-YAP/TAZ interaction was 7 nM. In the data set with NCI-H226 cells, this compound gave an IC50 of 114 nM.

`C=C(F)C(=O)N1CC(n2nc(-c3ccc(C(F)(F)F)cc3)c3ncn(C)c(=O)c32)C1` [Compound 80, 1-(1-(2-fluoroacryloyl)azetidin-3-yl)-6-methyl-3-(4-(trifluorometh-yl)phenyl)-1,6-dihydro-7H-pyrazolo[4,3-d]pyrimidin-7-one]: in the data set with TEAD-YAP/TAZ interaction, the EC50 was found to be 2 nM. Further, half-maximal inhibition in the data set on NCI-H226 cells (IC50) was put at 2.32 nM.

Regarding `C=C(F)C(=O)N1CC(n2nc(-c3ccc(C(F)(F)F)nc3)c3cccnc32)C1` [Compound 124, 2-fluoro-1-(3-(3-(6-(trifluoro-methyl)pyridin-3-yl)-1H-pyrazolo[3,4-b]pyridin-1-yl)-azetidin-1-yl)prop-2-en-1-one], in data set [3], the Cmax amounted to 7190 ng/mL and the AUC came out at 24300 ng·h/mL. Also, the “TGI (%)” value in data set [1] (2 mg/kg) is listed as 67.3%. For the same compound, the body weight loss result in data set [2] is “no significant body weight loss”. In addition, the EC50 in the data set on TEAD-YAP/TAZ interaction came out at 14 nM. The compound further registered a half-maximal inhibitory concentration (IC50) in the data set with NCI-H226 cells of 20.7 nM.

Regarding `C=C(F)C(=O)N1CC(n2nc(-c3ccc(C(F)(F)F)nc3)c3ncccc32)C1` [Compound 132, 2-fluoro-1-(3-(3-(6-(trifluoro-methyl)pyridin-3-yl)-1H-pyrazolo[4,3-b]pyridin-1-yl)-azetidin-1-yl)prop-2-en-1-one], the EC50 in the data set on TEAD-YAP/TAZ interaction was 6 nM. Also, in the data set on NCI-H226 cells, half-maximal inhibition (IC50) was put at 12.7 nM.

These data come from patent US20230391779A1, “BICYCLIC COMPOUNDS, COMPOSITIONS AND USE THEREOF” (Betta Pharmaceuticals Co., Ltd., priority 2020, published 2023).
